Assay results from ChEMBL document CHEMBL5108060, “Discovery, Characterization, and Structure-Based Optimization of Small-Molecule In Vitro and In Vivo Probes for Human DNA Polymerase Theta” (J Med Chem, 2022).
Values after ≈ are worked out from the molar mass of the structure shown. Active and inactive are the calls of the source. The rule behind the calls is not given here.

Experiments:
[1] = Lipophilicity, logD of compound; format: physicochemical; conditions: octanol/water
[2] = Inhibition of microhomology-mediated end joining in HEK293 cells; format: functional, cell-based, Homo sapiens
DLD-1 [3] = test: Antiproliferative activity against human BRCA-2 deficient DLD-1 cells; format: functional, cell-based
DLD-1 [4] = test: Antiproliferative activity against human DLD-1 cells; format: functional, cell-based
[5] = Metabolic stability in mouse liver microsomes assessed as intrinsic clearance; format: ADME, Microsome; conditions: read-out: CLH
[6] = Metabolic stability in human liver microsomes assessed as intrinsic clearance; format: ADME, Microsome; conditions: read-out: CLH
[7] = Metabolic stability in rat liver microsomes assessed as intrinsic clearance; format: ADME, Microsome; conditions: read-out: CLH
DNA polymerase theta [8] = target: T1, DNA polymerase theta (Homo sapiens, UniProt O75417); test: Displacement of tracer from recombinant Tb-labeled DNA polymerase theta (unknown origin) using DNA as substrate preincubated for 30 mins followed by compound addition for 2 hrs by HTRF assay
T1 sequence (O75417 whole entry): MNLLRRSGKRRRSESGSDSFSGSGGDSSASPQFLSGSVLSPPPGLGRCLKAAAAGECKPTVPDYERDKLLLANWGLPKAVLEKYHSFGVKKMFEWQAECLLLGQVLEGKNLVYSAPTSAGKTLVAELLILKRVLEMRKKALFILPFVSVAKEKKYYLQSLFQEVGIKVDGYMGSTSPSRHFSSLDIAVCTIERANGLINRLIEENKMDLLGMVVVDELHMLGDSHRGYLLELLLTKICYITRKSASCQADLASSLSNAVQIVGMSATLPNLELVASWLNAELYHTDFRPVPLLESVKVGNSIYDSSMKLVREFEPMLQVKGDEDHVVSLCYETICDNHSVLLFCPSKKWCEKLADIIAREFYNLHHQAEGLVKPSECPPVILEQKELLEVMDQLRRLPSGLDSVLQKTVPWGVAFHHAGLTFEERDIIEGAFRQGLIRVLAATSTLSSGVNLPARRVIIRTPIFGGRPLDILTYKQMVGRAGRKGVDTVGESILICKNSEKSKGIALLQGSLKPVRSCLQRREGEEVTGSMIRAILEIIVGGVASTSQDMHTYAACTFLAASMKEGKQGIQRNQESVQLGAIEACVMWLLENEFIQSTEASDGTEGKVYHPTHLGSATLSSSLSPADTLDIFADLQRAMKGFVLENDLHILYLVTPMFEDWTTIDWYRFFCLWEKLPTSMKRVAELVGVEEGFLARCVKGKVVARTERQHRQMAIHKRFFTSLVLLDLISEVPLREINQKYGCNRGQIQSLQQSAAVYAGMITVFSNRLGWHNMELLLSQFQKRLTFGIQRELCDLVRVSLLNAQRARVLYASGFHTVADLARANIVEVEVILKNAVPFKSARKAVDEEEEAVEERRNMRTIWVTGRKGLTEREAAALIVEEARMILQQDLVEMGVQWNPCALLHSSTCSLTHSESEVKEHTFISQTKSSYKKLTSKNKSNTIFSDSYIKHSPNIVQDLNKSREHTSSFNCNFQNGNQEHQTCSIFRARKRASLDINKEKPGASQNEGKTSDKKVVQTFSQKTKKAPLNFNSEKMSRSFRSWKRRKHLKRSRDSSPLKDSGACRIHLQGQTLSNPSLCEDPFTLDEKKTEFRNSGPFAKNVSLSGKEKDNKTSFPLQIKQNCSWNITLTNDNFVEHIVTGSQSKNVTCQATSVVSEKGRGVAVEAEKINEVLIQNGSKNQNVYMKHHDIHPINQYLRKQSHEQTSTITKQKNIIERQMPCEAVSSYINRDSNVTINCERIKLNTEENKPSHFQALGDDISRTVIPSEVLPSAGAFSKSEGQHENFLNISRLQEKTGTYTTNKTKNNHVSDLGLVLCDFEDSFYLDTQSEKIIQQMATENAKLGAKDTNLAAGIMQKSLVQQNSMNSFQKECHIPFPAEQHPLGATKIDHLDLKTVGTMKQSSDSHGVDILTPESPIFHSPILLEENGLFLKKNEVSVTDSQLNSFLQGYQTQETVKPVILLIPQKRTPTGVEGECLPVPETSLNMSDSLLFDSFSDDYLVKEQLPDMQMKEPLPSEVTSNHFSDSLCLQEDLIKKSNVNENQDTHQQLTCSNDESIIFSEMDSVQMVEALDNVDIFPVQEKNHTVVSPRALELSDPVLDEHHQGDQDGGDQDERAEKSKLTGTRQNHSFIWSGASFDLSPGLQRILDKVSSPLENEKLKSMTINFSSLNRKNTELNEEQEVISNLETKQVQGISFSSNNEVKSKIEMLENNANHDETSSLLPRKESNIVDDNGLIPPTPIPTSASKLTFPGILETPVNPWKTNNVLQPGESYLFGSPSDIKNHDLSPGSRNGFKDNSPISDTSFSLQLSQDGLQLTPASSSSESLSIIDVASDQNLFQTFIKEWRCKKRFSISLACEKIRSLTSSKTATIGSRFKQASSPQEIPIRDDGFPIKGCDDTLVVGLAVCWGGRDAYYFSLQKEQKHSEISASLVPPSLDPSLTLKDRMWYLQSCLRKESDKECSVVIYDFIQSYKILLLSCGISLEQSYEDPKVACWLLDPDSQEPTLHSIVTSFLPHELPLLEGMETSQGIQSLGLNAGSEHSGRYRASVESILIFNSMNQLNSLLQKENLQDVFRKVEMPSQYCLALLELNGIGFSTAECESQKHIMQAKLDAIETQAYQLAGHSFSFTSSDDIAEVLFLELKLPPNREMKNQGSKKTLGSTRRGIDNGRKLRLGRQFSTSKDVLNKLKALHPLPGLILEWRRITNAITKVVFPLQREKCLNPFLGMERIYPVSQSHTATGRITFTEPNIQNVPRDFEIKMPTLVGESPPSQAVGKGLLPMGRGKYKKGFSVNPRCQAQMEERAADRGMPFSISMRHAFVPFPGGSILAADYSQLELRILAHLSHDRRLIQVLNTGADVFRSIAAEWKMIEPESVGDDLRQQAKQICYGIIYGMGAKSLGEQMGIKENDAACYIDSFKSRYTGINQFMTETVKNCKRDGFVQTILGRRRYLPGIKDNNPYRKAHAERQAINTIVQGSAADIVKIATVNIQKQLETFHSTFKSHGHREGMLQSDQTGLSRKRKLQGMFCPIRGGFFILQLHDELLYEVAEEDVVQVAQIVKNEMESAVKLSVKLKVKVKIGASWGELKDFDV

[9] = Thermodynamic solubility of the compound; format: physicochemical; conditions: read-out: Therm_solubility
DNA polymerase theta [10] = target: T1, DNA polymerase theta; test: Inhibition of human full length DNA polymerase theta ATPase activity by ADP-Glo assay
DNA polymerase theta [11] = target: T1, DNA polymerase theta; test: Displacement of tracer from recombinant Tb-labeled DNA polymerase theta (unknown origin) assessed as end point Kd using DNA as substrate preincubated for 30 mins followed by compound addition for 2 hrs by HTRF assay
DNA polymerase theta [12] = target: T1, DNA polymerase theta; test: Inhibition of recombinant human full length DNA polymerase theta using DNA substrate measured after 1 hrs in presence of dNTPs by plate reader assay
[13] = Clearance in mouse plasma at 3 mg/kg, iv; format: ADME, organism-based
[14] = Clearance in mouse plasma at 0.3 mg/kg, iv; format: ADME, organism-based
[15] = Half life in mouse at 3 mg/kg, iv; format: ADME, organism-based; conditions: in vivo
[16] = Volume of distribution at steady state in mouse at 3 mg/kg, iv; format: ADME, organism-based; conditions: in vivo, read-out: Vdss
[17] = Free maximum concentration of drug in mouse at 10 mg/kg, po; format: ADME, organism-based; conditions: in vivo
[18] = AUCinfinity in mouse at 10 mg/kg, po; format: ADME, organism-based; parameters: time infinity, dose 10 mg/kg, route po; conditions: in vivo
[19] = Oral bioavailability in mouse at 10 mg/kg; format: ADME, organism-based; conditions: in vivo
[20] = Clearance in rat plasma at 3 mg/kg, iv; format: ADME, organism-based
[21] = Half life in rat at 3 mg/kg, iv; format: ADME, organism-based; conditions: in vivo
[22] = Volume of distribution at steady state in rat at 3 mg/kg, iv; format: ADME, organism-based; conditions: in vivo, read-out: Vdss
[23] = Free maximum concentration of drug in rat at 10 mg/kg, po; format: ADME, organism-based; conditions: in vivo
[24] = AUCinfinity in rat at 10 mg/kg, po; format: ADME, organism-based; parameters: time infinity, dose 10 mg/kg, route po; conditions: in vivo
[25] = Oral bioavailability in rat at 10 mg/kg; format: ADME, organism-based; conditions: in vivo
[26] = Solubility of the compound; format: physicochemical
[27] = In vivo inhibition of DNA polymerase theta in mouse assessed as fold induction of micronuclei in reticulocytes at 150 mg/kg, po BID for 4 days by flow cytometry analysis; format: functional; conditions: time 4 day
Breast carcinoma cell = test: Antitumor activity against BRCA1/SHLD2 knockout rat breast cancer xenograft model assessed as tumor growth inhibition at 100 mg/kg, po qd; format: functional, organism-based
[28] = Mutagenicity in Salmonella typhimurium LT2 TA98 in presence or absence of S9 fraction by Ames test; format: toxicity; conditions: salmonella enterica subsp. enterica serovar typhimurium
[29] = Mutagenicity in Salmonella typhimurium LT2 TA100 in presence or absence of S9 fraction by Ames test; format: toxicity; conditions: salmonella enterica subsp. enterica serovar typhimurium

Work on `Cc1cccc(N(C)C(=O)[C@@H]2C[C@H](O)CN2c2nc(C)cc(C(F)(F)F)c2C#N)c1` yielded a logD [1] of 3.6, an EC50 [2] of 205 nM and an EC50 (DLD-1 [3]) of 2300 nM. For the same compound, the EC50 (DLD-1 [4]) was > 12000 nM.

`Cc1cc(C(F)(F)F)cc(N2C(=O)OC[C@H]2C(=O)N(C)c2cccc(Cl)c2F)n1` gave a microsomal CLint [5] of 165 µL/min/mg.

In the case of `CCN(C(=O)[C@@H]1[C@H](O)[C@H](O)C(=O)N1c1cc(C(F)(F)F)cc(C)n1)c1ccc(F)c(Cl)c1`, the EC50 [2] is reported as 362 nM, the EC50 (DLD-1 [3]) is reported as 6900 nM and the EC50 (DLD-1 [4]) is reported as > 12000 nM. For the same compound, the microsomal CLint [5] was 20 µL/min/mg, the microsomal CLint [6] was < 10 µL/min/mg and the microsomal CLint [7] was 30 µL/min/mg.

In the case of `Cc1cccc(N(C)C(=O)[C@@H]2[C@H](O)CCN2c2nc(C)cc(C(F)(F)F)c2C#N)c1`, the logD [1] is reported as 3.5, the Kd (DNA polymerase theta [8]) is reported as 4.8 nM and the EC50 [2] is reported as 180 nM. The EC50 (DLD-1 [3]) was 800 nM, the EC50 (DLD-1 [4]) was > 12000 nM and the microsomal CLint [5] was > 1500 µL/min/mg. For the same compound, the solubility thermodynamic [9] was 381 µM (≈ 159 µg/mL), the IC50 (DNA polymerase theta [10]) was > 12000 nM and the Kd (DNA polymerase theta [11]) was 6.4 nM.

With `Cc1cccc(N(C)C(=O)[C@@H]2CCC(=O)N2c2cc(C(F)(F)F)cc(C)n2)c1` the IC50 (DNA polymerase theta [12]) was 6.8 nM, the logD [1] was 3.7 and the microsomal CLint [5] was > 1000 µL/min/mg.

Compound `CCN(C(=O)[C@H](C)Nc1nc(C)cc(C(F)(F)F)c1C#N)c1cccc(C)c1` has an IC50 (DNA polymerase theta [12]) of 29 nM.

With `Cc1cccc(N(C)C(=O)[C@@H]2[C@@H](O)CCN2c2nc(C)cc(C(F)(F)F)c2C#N)c1` the Kd (DNA polymerase theta [8]) was 24 nM, the EC50 [2] was 320 nM and the EC50 (DLD-1 [3]) was 3000 nM. The EC50 (DLD-1 [4]) was > 12000 nM and the Kd (DNA polymerase theta [11]) was 42 nM.

`CCN(C(=O)[C@@H](C)Nc1nc(C)cc(C(F)(F)F)c1C#N)c1cccc(C)c1` gave an IC50 (DNA polymerase theta [12]) of 5100 nM.

With `Cc1cccc(N(C)C(=O)[C@@H]2C[C@@H](O)CN2c2nc(C)cc(C(F)(F)F)c2C#N)c1` the EC50 [2] was 315 nM, the EC50 (DLD-1 [3]) was 6000 nM and the EC50 (DLD-1 [4]) was > 12000 nM.

Work on `CCN(C(=O)[C@@H]1COC(=O)N1c1cc(C(F)(F)F)cc(C)n1)c1ccc(F)c(Cl)c1` yielded a logD [1] of 4 and a microsomal CLint [5] of 260 µL/min/mg.

`Cc1cc(C(F)(F)F)cc(N2C(=O)OC[C@H]2C(=O)N(C)c2ccc(F)c(C)c2F)n1` showed an IC50 (DNA polymerase theta [12]) of 4.1 nM and a microsomal CLint [5] of 818 µL/min/mg.

In the case of `CCN(C(=O)COc1nc(C)cc(C)c1C#N)c1cccc(C)c1`, the IC50 (DNA polymerase theta [12]) is reported as 4400 nM, the EC50 [2] is reported as 1840 nM and the EC50 (DLD-1 [3]) is reported as > 12000 nM. The EC50 (DLD-1 [4]) was > 12000 nM and the Kd (DNA polymerase theta [11]) was 820 nM.

Work on `Cc1cc(C(F)(F)F)cc(N2C(=O)OC[C@H]2C(=O)N(C)c2ccc(F)c(Cl)c2F)n1` yielded an IC50 (DNA polymerase theta [12]) of 5.4 nM and a microsomal CLint [5] of 210 µL/min/mg.

`Cc1cccc(N(C(=O)[C@@H]2CCCN2c2nc(C)cc(C(F)(F)F)c2C#N)C(C)C)c1` showed an IC50 (DNA polymerase theta [12]) of 8.8 nM.

`CCN(C(=O)COc1nc(C)c(Br)c(C)c1C#N)c1cccc(C)c1` showed an IC50 (DNA polymerase theta [12]) of 1500 nM.

Compound `Cc1cc(C(F)(F)F)cc(N2C(=O)OC[C@H]2C(=O)N(C)c2ccc(F)c(C)c2)n1` has an IC50 (DNA polymerase theta [12]) of 9.4 nM and a microsomal CLint [5] of 404 µL/min/mg.

`CCN(C(=O)COc1cc(C(F)(F)F)cc(C)n1)c1cccc(C)c1` gave an IC50 (DNA polymerase theta [12]) of 530 nM.

`CCN(C(=O)[C@@H]1CCCN1c1nc(C)cc(C)c1C#N)c1cccc(C)c1` gave an IC50 (DNA polymerase theta [12]) of 72 nM.

Work on `Cc1cc(C(F)(F)F)cc(N2C(=O)OC[C@H]2C(=O)N(C)c2cc(Cl)c(F)cc2F)n1` yielded a microsomal CLint [5] of 98 µL/min/mg.

Compound `Cc1cc(C(F)(F)F)cc(N2C(=O)[C@@H](O)[C@@H](O)[C@H]2C(=O)N(C)c2ccc(F)c(Cl)c2)n1` has a clearance [13] of 2.8 mL/min/kg, a clearance [14] of 16.4 mL/min/kg and an IC50 (DNA polymerase theta [12]) of 7.6 nM. It also gave a logD [1] of 3, an EC50 [2] of 240 nM and an EC50 (DLD-1 [3]) of 1100 nM. For the same compound, the EC50 (DLD-1 [4]) was > 12000 nM, the microsomal CLint [5] was 42 µL/min/mg and the microsomal CLint [6] was 30 µL/min/mg. The microsomal CLint [7] was 50 µL/min/mg, the half-life [15] was 7 h and the Vd [16] was 2.5 L/kg. The fCmax [17] was 405 nM, the AUC(0-inf) [18] was 54700 ng·h/mL and the bioavailability [19] was 80%. The clearance [20] was 35 mL/min/kg, the half-life [21] was 1.3 h and the Vd [22] was 2.9 L/kg. The fCmax [23] was 79 nM, the AUC(0-inf) [24] was 2750 ng·h/mL and the bioavailability [25] was 57%. The solubility [26] was 880 µM (≈ 406 µg/mL), the “fold change (FC)” value [27] was 2 and the Activity (Breast carcinoma cell) was “Active”. For the same compound, the Activity [28] was “Non-Toxic” and the Activity [29] was “Non-Toxic”.

For `CCN(C(=O)COc1nc(C)c(Cl)c(C)c1C#N)c1cccc(C)c1`, the IC50 (DNA polymerase theta [12]) was 630 nM.
